In ChEMBL document CHEMBL5500427, “Discovery of New Phenyltetrazolium Derivatives as Ferroptosis Inhibitors for Treating Ischemic Stroke: An Example Development from Free Radical Scavengers” (J Med Chem, 2024):
The source made the active and inactive calls. The calls are words filed in the database; no cut-off is given here.

Legend:
HT-1080 [1] = assay: Anti-ferroptotic activity against Erastin-induced human HT-1080 cells assessed as inhibition of ferroptosis incubated for 72 hrs by CCK-8 assay; type: functional, cell-based
[2] = Antioxidant activity assessed as DPPH radical scavenging activity at 0.4 uM incubated for 30 mins by Beckman Coulter analysis relative to control; type: functional
[3] = Cytotoxicity against human L02 cells incubated for 2 hrs by CCK-8 assay; type: toxicity, cell-based
N2a [4] = assay: Cytoprotective activity against oxygen-glucose deprivation/reoxygenation induced cell injury in mouse N2a cells assessed as increase in cell viability at 1 uM incubated for 2 hrs under hypoxia condition and measured after 24 hrs; type: functional, cell-based; conditions: time 26.0 hrs
N2a [5] = assay: Cytoprotective activity against oxygen-glucose deprivation/reoxygenation induced cell injury in mouse N2a cells assessed as upregulation of SLC7A11 expression at 1 uM incubated for 2 hrs under hypoxia condition and measured after 24 hrs by Western blotting analysis; type: functional, cell-based; conditions: time 26.0 hrs
[6] = Drug concentration in ICR mouse kidney at 1 mg/kg,iv administration measured after 0.083 hrs by LC-MS/MS analysis; type: ADME, organism-based; conditions: in vivo
[7] = Drug concentration in ICR mouse kidney at 1 mg/kg,iv administration measured after 0.5 hrs by LC-MS/MS analysis; type: ADME, organism-based; conditions: in vivo
[8] = AUC (0 to t) in ICR mouse at 1 mg/kg,iv administration measured upto 24 hrs by LC-MS/MS analysis; type: ADME, organism-based; conditions: in vivo
[9] = Drug concentration in ICR mouse lung at 1 mg/kg,iv administration measured after 0.5 hrs by LC-MS/MS analysis; type: ADME, organism-based; conditions: in vivo
HT-1080 [10] = assay: Anti-ferroptotic activity against Erastin-induced ferroptosis in human HT-1080 cells assessed as inhibition of lipid ROS production at 0.5 uM incubated for 24 hrs by C11-BODIPY 581/591 based flow cytometry relative to control; type: functional
[11] = Cmax in ICR mouse at 1 mg/kg,iv administration measured upto 24 hrs by LC-MS/MS analysis; type: ADME, organism-based; conditions: in vivo
[12] = Half life in ICR mouse at 1 mg/kg,iv administration measured upto 24 hrs by LC-MS/MS analysis; type: ADME, organism-based; conditions: in vivo
Mus musculus [13] = assay: Neuroprotective activity against transient middle cerebral artery occlusion induced ischemia stroke female SPF C57 mouse model assessed as upregulation of SLC7A11 expression at 5 mg/kg,iv measured after 24 hrs by Western blotting analysis; type: functional, organism-based
HEK293 = assay: Cytotoxicity against human HEK293 cells incubated for 2 hrs by CCK-8 assay; type: toxicity, cell-based; conditions: hek293, 2 h
[14] = Drug concentration in ICR mouse lung at 1 mg/kg,iv administration measured after 0.083 hrs by LC-MS/MS analysis; type: ADME, organism-based; conditions: in vivo
Mus musculus [15] = assay: Neuroprotective activity against transient middle cerebral artery occlusion induced ischemia stroke female SPF C57 mouse model assessed as upregulation of GPX expression at 5 mg/kg,iv measured after 24 hrs by Western blotting analysis; type: functional, organism-based
[16] = Drug concentration in ICR mouse liver at 1 mg/kg,iv administration measured after 0.5 hrs by LC-MS/MS analysis; type: ADME, organism-based; conditions: in vivo
[17] = Drug concentration in ICR mouse kidney at 1 mg/kg,iv administration measured after 1 hrs by LC-MS/MS analysis; type: ADME, organism-based; conditions: in vivo
[18] = Drug concentration in ICR mouse brain at 1 mg/kg,iv administration measured after 0.083 hrs by LC-MS/MS analysis; type: ADME, organism-based; conditions: in vivo
[19] = Tmax in ICR mouse at 1 mg/kg,iv administration measured upto 24 hrs by LC-MS/MS analysis; type: ADME, organism-based; conditions: in vivo
[20] = Drug concentration in ICR mouse liver at 1 mg/kg,iv administration measured after 1 hrs by LC-MS/MS analysis; type: ADME, organism-based; conditions: in vivo
[21] = Drug concentration in ICR mouse brain at 1 mg/kg,iv administration measured after 0.25 hrs by LC-MS/MS analysis; type: ADME, organism-based; conditions: in vivo
[22] = AUC (0 to infinity) in ICR mouse at 1 mg/kg,iv administration measured upto 24 hrs by LC-MS/MS analysis; type: ADME, organism-based; conditions: in vivo
Mus musculus [23] = assay: Neuroprotective activity against transient middle cerebral artery occlusion induced ischemia stroke female SPF C57 mouse model assessed as reduction in neurological deficit score at 5 mg/kg,iv measured after 24 hrs; type: functional
[24] = Drug concentration in ICR mouse liver at 1 mg/kg,iv administration measured after 0.25 hrs by LC-MS/MS analysis; type: ADME, organism-based; conditions: in vivo
[25] = Drug concentration in ICR mouse kidney at 1 mg/kg,iv administration measured after 0.25 hrs by LC-MS/MS analysis; type: ADME, organism-based; conditions: in vivo
N2a [26] = assay: Cytoprotective activity against oxygen-glucose deprivation/reoxygenation induced cell injury in mouse N2a cells assessed as upregulation of GPX4 expression at 1 uM incubated for 2 hrs under hypoxia condition and measured after 24 hrs by Western blotting analysis; type: functional, cell-based; conditions: time 26.0 hrs
[27] = Apparent permeability of compound at 10 uM incubated for 16 hrs by PAMPA based LC-MS/MS analysis; type: ADME
[28] = Drug concentration in ICR mouse lung at 1 mg/kg,iv administration measured after 0.25 hrs by LC-MS/MS analysis; type: ADME, organism-based; conditions: in vivo
Mus musculus [29] = assay: Neuroprotective activity against transient middle cerebral artery occlusion induced ischemia stroke female SPF C57 mouse model assessed as reduction in cerebral infarct volume at 5 mg/kg,iv measured after 24 hrs by TTC staining based analysis relative to control; type: functional; parameters: scale not given: the % may be the effect or the level left
Mus musculus [30] = assay: Neuroprotective activity against transient middle cerebral artery occlusion induced ischemia stroke female SPF C57 mouse model assessed as reduction in cerebral edema at 5 mg/kg,iv measured after 24 hrs; type: functional, organism-based
[31] = Cytotoxicity against human H6C7 cells incubated for 2 hrs by CCK-8 assay; type: toxicity, cell-based; conditions: h6c7, 2 h
[32] = Drug concentration in ICR mouse liver at 1 mg/kg,iv administration measured after 0.083 hrs by LC-MS/MS analysis; type: ADME, organism-based; conditions: in vivo
HT-1080 [33] = assay: Anti-ferroptotic activity against Erastin-induced ferroptosis in human HT-1080 cells assessed as inhibition of lipid ROS production at 10 uM incubated for 24 hrs by C11-BODIPY 581/591 based flow cytometry relative to control; type: functional; conditions: HT-1080, 24 h, values are per cent of control
[34] = Drug concentration in ICR mouse brain at 1 mg/kg,iv administration measured after 0.5 hrs by LC-MS/MS analysis; type: ADME, organism-based; conditions: in vivo
HT-1080 [35] = assay: Anti-ferroptotic activity against Erastin-induced ferroptosis in human HT-1080 cells assessed as inhibition of lipid peroxidation production at 10 uM incubated for 24 hrs by C11-BODIPY 581/591 based flow cytometry relative to control; type: functional; conditions: HT-1080, 24 h, values are per cent of control
MEF = assay: Anti-ferroptotic activity against tamoxifen induced Gpx4 knockout mouse MEF cells assessed as inhibition of ferroptosis incubated for 72 hrs by AquaBluerTM assay; type: functional, cell-based
[36] = Homo sapiens, HT-1080, 72 h, read-out: IC50

## Cc1cc(NC2CCCCC2)ccc1-c1nnn(C)n1
HT-1080 [1]; [36]
  IC50: 0.99 µM

## Cn1nnc(-c2cc(N)c(NC3CCCCC3)cc2F)n1
[2]
  inhibition: 35.3%
[3]
  IC50 at 2 h: 12.3 µM
N2a [4]
  Activity: Active
HT-1080 [1]; [36]
  IC50: 0.049 µM

## CN(c1ccc(-c2nnn(C)n2)cc1)C1CCCCC1
HT-1080 [1]; [36]
  IC50: > 10 µM

## Cn1nnc(-c2ccc(O)c(NC3CCCCC3)c2)n1
HT-1080 [1]; [36]
  IC50: > 1 µM

## Cn1nnc(-c2ccc(NC3CCCCC3)c(NCc3ccncc3)c2)n1
HT-1080 [1]; [36]
  IC50: > 1 µM

## Cn1nnc(-c2ccc(N)c(NC3CCCCC3)c2)n1
N2a [5]
  Activity: Active
[2]
  inhibition: 41.3%
[6]
  Ct: 0.41 mg/kg
[7]
  Ct: 0.12 mg/kg
[8]
  AUC(0-t) at 24 h: 91.5 ng·h/mL
[9]
  Ct: 0.1 mg/kg
HT-1080 [10]
  inhibition at 0.5 µM: 0.3%
[11]
  Cmax: 367 ng/mL
[12]
  half-life: 6 min
Mus musculus [13]
  Activity: Active
HEK293
  Activity: Toxic
[14]
  Ct: 0.37 mg/kg
Mus musculus [15]
  Activity: Active
[16]
  Ct: 0.09 mg/kg
[17]
  Ct: 0.03 mg/kg
N2a [4]
  Activity: Active
[18]
  Ct: 0.09 mg/kg
[19]
  Tmax: 4.8 min
[20]
  Ct: 0.02 mg/kg
[21]
  Ct: 0.04 mg/kg
[22]
  AUC(0-inf): 95.6 ng·h/mL
Mus musculus [23]
  Activity: 2
[24]
  Ct: 0.24 mg/kg
[25]
  Ct: 0.38 mg/kg
N2a [26]
  Activity: Active
[27]
  Papp at 16 h, 10 µM: 3.89 ×10⁻⁶ cm/s
[28]
  Ct: 0.19 mg/kg
Mus musculus [29]
  Activity: 12.03%
Mus musculus [30]
  Activity: Active
[31]
  Activity: Toxic
[32]
  Ct: 0.32 mg/kg
HT-1080 [1]; [36]
  IC50: 0.022 µM
HT-1080 [33]
  response, % of control at 10 µM: 0.57%
[34]
  Ct: 0.02 mg/kg

## Cn1nnc(-c2ccc(NC3CCCCC3)cc2)n1
HT-1080 [35]
  response, % of control at 10 µM: 5.96%
HT-1080 [1]; [36]
  IC50: 0.122 µM

## O=C1c2c(O)cc(O)cc2O[C@H](c2ccc(O)c(O)c2)[C@H]1O [(+)-TAXIFOLIN]
HT-1080 [1]; [36]
  IC50: > 10 µM

## FC(F)(F)Cn1nnc(-c2ccc(NC3CCCCC3)cc2)n1
HT-1080 [1]; [36]
  IC50: > 10 µM

## Cn1nnc(-c2ccc(Nc3cccnc3)c(NC3CCCCC3)c2)n1
HT-1080 [1]; [36]
  IC50: 0.186 µM

## CCn1nnc(-c2ccc(NC3CCCCC3)cc2)n1
HT-1080 [1]; [36]
  IC50: 8.51 µM

## Clc1cccc(CNC2=Nc3ccccc3NC23CCNCC3)c1
MEF
  IC50: 0.022 µM

## Cn1nnc(-c2cccc(NC3CCCCC3)c2N)n1
HT-1080 [1]; [36]
  IC50: > 1 µM

## Cn1nnc(-c2c(F)cc(NC3CCCCC3)cc2F)n1
HT-1080 [1]; [36]
  IC50: > 1 µM

## N#CCn1nnc(-c2ccc(NC3CCCCC3)cc2)n1
HT-1080 [1]; [36]
  IC50: 8.12 µM

## Oc1cc(O)cc(/C=C/c2ccc(O)cc2O)c1 [OXYRESVERATROL]
HT-1080 [1]; ht-1080
  IC50: Not Active

## Cc1c(-c2nnn(C)n2)ccc(NC2CCCCC2)c1N
HT-1080 [1]; [36]
  IC50: 0.044 µM

## Cn1nnc(-c2ccc(NC3CCCCC3)cc2F)n1
HT-1080 [1]; [36]
  IC50: > 1 µM

## COc1cc(NC2CCCCC2)c(N)cc1-c1nnn(C)n1
HT-1080 [1]; [36]
  IC50: 0.801 µM
